Data reported in US20210130790A1, “Infected Cell Cultures” (Merck Patent GmbH, priority 2017, published 2021).

Test system: Pb-Luc (Plasmodium berghei constitutively expressing luciferase) sporozoite infection of HC-04 3D cultures
Experiment: Drug activity on Pb-Luc sporozoite infection of HC-04 3D cultures (spheroids), luciferase readout
Assay type: cell-based
Method: FIG. 19—Analysis of drug activity in Pb infected-HC-04 spheroids. Dose-response curve of 3D cultures treated with ATQ. Results are expressed as percentage of infection normalized to the non-treated control. Results are represented as the mean of up to two independent experiments.
Initially, a preliminary assay employing reporter lines of Plasmodium berghei, constitutively expressing luciferase (Pb-Luc) or GFP (Pb-GFP), was performed to optimize the range of cell-to-sporozoite ratios and mode of contact. Pb-Luc parasites enable measuring infection by luminescence readings of cell lysates following addition of the luciferin substrate. Pb-GFP parasites enable measuring infection flow cytometry analysis. Such analyses allow measuring the percentage of invaded cells (% GFP-positive cells) and the development of the parasite inside the hepatic cells (GFP intensity). […]
HC-04 3D cultures were infected with Pb-Luc in the optimized conditions described above (cell density of 2.5×10^4 cell/well in a 1:2 ratio). The assessment of drug effect in the infection was performed by incubating the drug at a range of concentrations from 0.01 to 100 nM for 1 hour before incubation with the sporozoites and the readout was performed 48 hours after sporozoites addition, described as incubation regimen (A) in the detailed description of the invention section (FIG. 1). […]

O=C1C(O)=C([C@H]2CC[C@H](c3ccc(Cl)cc3)CC2)C(=O)c2ccccc21 [ATQ, Atovaquone]
IC50 (Plasmodium berghei, HC04, 2.5×10^4 cell/well, 1:2 cell-to-sporozoite ratio, drug added 1 hour before sporozoites, readout 48 hours after sporozoite addition (regimen A), read-out: half inhibitory concentration (IC50) for sporozoite infection): 0.6 nM | decrease of infection (highest concentrations tested (range 0.01 to 100 nM), readout 48 hours, normalized to non-treated control): more than 90%
